Patent US11964052B2, “Lipid compounds and lipid nanoparticle compositions” (SUZHOU ABOGEN BIOSCIENCES CO., LTD., priority 2021, dated 2024)

Tests used:
Type in all cases: physicochemical
[1] = Lipid nanoparticle size and polydispersity by dynamic light scattering (Malvern Zetasizer Nano ZS); conditions: LNP of cationic lipid/DSPC/cholesterol/PEG-lipid 50:10:38.5:1.5 with mRNA
Description: (§1) Briefly, a cationic lipid provided herein, DSPC, cholesterol, and PEG-lipid were solubilized in ethanol at a molar ratio of 50:10:38.5:1.5, and mRNA were diluted in 10 to 50 mM citrate buffer, pH=4. The LNPs were prepared at a total lipid to mRNA weight ratio of approximately 10:1 to 30:1 by mixing the ethanolic lipid solution with the aqueous mRNA solution at a volume ratio of 1:3 using a microfluidic apparatus, total flow rate ranging from 9-30 mL/min. Ethanol were thereby removed and replaced by DPBS using dialysis. Finally, the lipid nanoparticles were filtered through a 0.2 μm sterile filter.
(§2) Lipid nanoparticle size were determined by dynamic light scattering using a Malvern Zetasizer Nano ZS (Malvern UK) using a 173° backscatter detection mode. The encapsulation efficiency of lipid nanoparticles were determined using a Quant-it Ribogreen RNA quantification assay kit (Thermo Fisher Scientific, UK) according to the manufacturer's instructions.

[2] = Encapsulation efficiency of lipid nanoparticles, Quant-it Ribogreen RNA quantification assay; conditions: LNP with mRNA
Description: as §1, §2

[3] = Apparent pKa of LNP formulations, TNS fluorescence assay; conditions: LNP cationic lipid/DSPC/cholesterol/DMG-PEG 50/10/38.5/1.5 mol %, pH 3 to 9
Description: As reported in literature, the apparent pKa of LNP formulations correlates with the delivery efficiency of LNPs for nucleic acids in vivo. The apparent pKa of each formulation was determined using an assay based on fluorescence of 2-(p-toluidino)-6-napthalene sulfonic acid (TNS). LNP formulations comprising of cationic lipid/DSPC/cholesterol/DMG-PEG (50/10/38.5/1.5 mol %) in PBS were prepared as described above. TNS was prepared as a 300 uM stock solution in distilled water. LNP formulations were diluted to 0.1 mg/ml total lipid in 3 mL of buffered solutions containing 50 mM sodium citrate, 50 mM sodium phosphate, 50 mM sodium borate, and 30 mM sodium chloride where the pH ranged from 3 to 9. An aliquot of the TNS solution was added to give a final concentration of 0.1 mg/ml and following vortex mixing fluorescence intensity was measured at room temperature in a Molecular Devices Spectramax iD3 spectrometer using excitation and mission wavelengths of 325 nm and 435 nm. A sigmoidal best fit analysis was applied to the fluorescence data and the pKa value was measured as the pH giving rise to half-maximal fluorescent intensity.

SMILES | polydispersity [1] | size (nm) [1] | Encapsulation Efficiency [2] | Apparant Pka [3]
CCCCCCCCC(CCCCCCCC)CNC(=O)CCOC(COCCC(=O)OCC(CCCCCCCC)CCCCCCCC)CN(C)CCN(CCO)C1CCC1 (centres unmarked) [Compound 61] | 0.055 | 70.83 nm | 96.2% | 7.219
CCCCCCCCCCCC(=O)OCC(CN(CCCCCC(=O)OCC(CCCCCC)CCCCCC)CCN1CCC(O)C1)OC(=O)CCCCC (centres unmarked) [Compound 62] | 0.075 | 58.44 nm | 94.1% | 7.062
CCCCCCC(CCCCCC)COC(=O)CCCCCN(CCN1CCC(O)C1)CC(COC(=O)CCCCC)OC(=O)CCCCC (centres unmarked) [Compound 63] | 0.076 | 150.2 nm | 95.9% | 6.928
CCCCCCCCC(CCCCCCCC)CC(=O)OCC(CCCCN(CCN(C)CCO)C1CCC1)COC(=O)CC(CCCCCCCC)CCCCCCCC [Compound 65] | 0.082 | 73.61 nm | 97.0% | 6.428
CCCCCCCCC(CCCCCCCC)CC(=O)OCC(CCCCN(C)CCN(CCO)C1CCC1)COC(=O)CC(CCCCCCCC)CCCCCCCC [Compound 66] | 0.044 | 72.85 nm | 96.6% | 6.749
CCCCCCCCC(CCCCCCCC)CC(=O)OCC(CCCCN(CC)CCN(CCO)C1CCC1)COC(=O)CC(CCCCCCCC)CCCCCCCC [Compound 67] | 0.116 | 130.6 nm | 91.83% | 6.444
CCCCCCCCC(CCCCCC)CC(=O)OCC(CCCCN(CCO)C1CCCCC1)COC(=O)CC(CCCCCC)CCCCCCCC (centres unmarked) [Compound 68] | 0.084 | 55.01 nm | 89.42% | 6.22
CCCCCCCCC(CCCCCC)CC(=O)OCC(CCCCN(CCN(CC)CCO)C1CCC1)COC(=O)CC(CCCCCC)CCCCCCCC (centres unmarked) [Compound 69] | 0.013 | 110.30 nm | 91.81% | 6.789
CCCCCCCCC(CCCCCCCC)COC(=O)CCOCC(CN(C)CCN(CCO)C1CC1)OCCC(=O)OCC(CCCCCCCC)CCCCCCCC (centres unmarked) [Compound 70] | 0.049 | 78.45 nm | 93.32% | 6.351
CCCCCCCCC(CCCCCCCC)COC(=O)CCOCC(CN(C)CCN(CCO)C1CCCC1)OCCC(=O)OCC(CCCCCCCC)CCCCCCCC (centres unmarked) [Compound 71] | 0.077 | 76.45 nm | 94.62% | 6.727
CCCCCCCCC(CCCCCCCC)COC(=O)CCOCC(CN(C)CCN(CCO)C1CCCCCC1)OCCC(=O)OCC(CCCCCCCC)CCCCCCCC (centres unmarked) [Compound 73] | 0.088 | 76.26 nm | 94.69% | 6.616
CCCCCCCCC(CCCCCCCC)COC(=O)CCOCC(CN(C)CCN(CCO)C1CCCCCCC1)OCCC(=O)OCC(CCCCCCCC)CCCCCCCC (centres unmarked) [Compound 74] | 0.031 | 101.00 nm | 93.97% | 6.539
CCCCCCCCC(CCCCCC)CC(=O)OCC(CCCCN(CC=C(C)C)CCO)COC(=O)CC(CCCCCC)CCCCCCCC (centres unmarked) [Compound 77] | 0.046 | 56.88 nm | 89.92% | 6.439
CCCCCCCCC(CCCCCC)CC(=O)OCC(CCCCN(CC=C(C)C)CCN(CCO)C1CCC1)COC(=O)CC(CCCCCC)CCCCCCCC (centres unmarked) [Compound 78] | 0.017 | 159.72 nm | 93.77% | 6.166
CCCCCCCCC(CCCCCC)CC(=O)OCC(CCCCN(CCN(CCO)C1CCC1)C1CCC1)COC(=O)CC(CCCCCC)CCCCCCCC (centres unmarked) [Compound 79] | 0.01 | 103.64 nm | 91.29% | 5.927
CCCCCCCCC(CCCCCC)CC(=O)OCC(CCCCN(CCN(CCC)CCO)C1CCC1)COC(=O)CC(CCCCCC)CCCCCCCC (centres unmarked) [Compound 80] | 0.027 | 98.95 nm | 92.20% | 6.063

SMILES | polydispersity [1] | size (nm) [1] | Encapsulation Efficiency [2] | Apparant Pka [3]
CCCCCCCCCCC(=O)OCC(CCCCN(CCO)C1CCC1)COC(=O)CC(CCCCCC)CCCCCCCC (centres unmarked) [Compound 81] | 0.023 | 72.78 nm | 88.28% | 6.79
CCCCCCCCCCC(=O)OCC(CCCCN(CCN(CCO)C1CCC1)C1CCC1)COC(=O)CC(CCCCCC)CCCCCCCC (centres unmarked) [Compound 82] | 0.079 | 84.46 nm | 92.38% | 6.621
CCCCCCCCC(CCCCCC)CC(=O)OCC(CCCCN(CCCC)CCN(CCO)C1CCC1)COC(=O)CC(CCCCCC)CCCCCCCC (centres unmarked) [Compound 83] | 0.019 | 94.04 nm | 92.39% | 6.182
CCCCCCCCCCC(=O)OCC(CCCCN(CCO)C1CCCC1)COC(=O)CC(CCCCCC)CCCCCCCC (centres unmarked) [Compound 84] | 0.01 | 83.05 nm | 93.44% | 6.785
CCCCCCCCCCC(=O)OCC(CCCCN(CCO)C1CCCCC1)COC(=O)CC(CCCCCC)CCCCCCCC (centres unmarked) [Compound 85] | 0.066 | 74.14 nm | 92.17% | 6.438
CCCCCCCCCCCCCCCC(=O)OCC(CCCCN(CCO)C1CCCCCC1)COC(=O)CC(CCCCCC)CCCCCCCC (centres unmarked) [Compound 87] | 0.044 | 64.08 nm | 92.47% | 6.372
CCCCCCCCCCCCCCCC(=O)OCC(CCCCN(CCO)C1CCCCCCC1)COC(=O)CC(CCCCCC)CCCCCCCC (centres unmarked) [Compound 88] | 0.063 | 59.54 nm | 92.91% | 6.309
CCCCC/C=C\C/C=C\CCCCCCCC(=O)OCC(CCCCN(CCO)C1CCC1)COC(=O)CC(CCCCCC)CCCCCCCC (centres unmarked) [Compound 89] | 0.04 | 69.36 nm | 92.56% | 6.926
CCCCC/C=C\C/C=C\CCCCCCCC(=O)OCC(CCCCN(CCO)C1CCCC1)COC(=O)CC(CCCCCC)CCCCCCCC (centres unmarked) [Compound 90] | 0.043 | 70.38 nm | 93.02% | 7.024
CCCCC/C=C\C/C=C\CCCCCCCC(=O)OCC(CCCCN(CCO)C1CCCCCC1)COC(=O)CC(CCCCCC)CCCCCCCC (centres unmarked) [Compound 91] | 0.111 | 63.89 nm | 92.11% | 6.608
CCCCCCCCCCC(=O)OCC(CCCCN(CCO)C1CCCCCCC1)COC(=O)CC(CCCCCC)CCCCCCCC (centres unmarked) [Compound 93] | 0.111 | 63.32 nm | 85.30% | 6.377
CCCCCCCCCCC(=O)OCC(CCCCN(CC=C(C)C)CCO)COC(=O)CC(CCCCCC)CCCCCCCC (centres unmarked) [Compound 94] | 0.04 | 77.15 nm | 93.93% | 6.793
CCCCCCCCCCCCCCCC(=O)OCC(CCCCN(CCO)C1CCC1)COC(=O)CC(CCCCCC)CCCCCCCC (centres unmarked) [Compound 98] | 0.01 | 77.16 nm | 93.58% | 6.997
CCCCCCCCCCCCCCCC(=O)OCC(CCCCN(CCO)C1CCCC1)COC(=O)CC(CCCCCC)CCCCCCCC (centres unmarked) [Compound 99] | 0.025 | 77.25 nm | 94.14% | 7.059
CCCCC/C=C\C/C=C\CCCCCCCC(=O)OCC(CCCCN(CCO)C1CCCCC1)COC(=O)CC(CCCCCC)CCCCCCCC (centres unmarked) [Compound 100] | 0.055 | 64.54 nm | 91.24% | 6.666
CCCCC/C=C\C/C=C\CCCCCCCC(=O)OCC(CCCCN(CCO)C1CCCCCCC1)COC(=O)CC(CCCCCC)CCCCCCCC (centres unmarked) [Compound 101] | 0.111 | 59.51 nm | 92.79% | 6.488
